# Legend:
# Format in all cases: cell-based
# [1] = test system: Wnt activity (Sp5-Luc reporter, SW480 colon carcinoma cells); experiment: Screening assay for Wnt activity: Sp5-Luc reporter gene assay in SW480 cells; details: Homo sapiens; for EC50: SW480 Sp5-Luc reporter, overnight incubation
# From the text: The screening assay for Wnt activity is described as follows. Reporter cell lines can be generated by stably transducing cancer cell lines (e.g., colon cancer) or primary cells (e.g., IEC-6 intestinal cells) with a lentiviral construct that includes a Wnt-responsive promoter driving expression of the firefly luciferase gene.
# SW480 colon carcinoma cells were transduced with a lentiviral vector expressing luciferase with a human Sp5 promoter consisting of a sequence of eight TCF/LEF binding sites. SW480 cells stably expressing the Sp5-Luc reporter gene and a hygromycin resistance gene were selected by treatment with 150 μg/mL of hygromycin for 7 days. These stably transduced SW480 cells were expanded in cell culture and used for all further screening activities. […] For Sp5-Luc reporter gene assays, the cells were plated at 4,000 cells/well in 384-well plates with medium containing 1% fetal bovine serum and incubated overnight at 37° C. and 5% CO2. Following incubation, 20 μl of BrightGlo luminescence reagent (Promega) was added to each well of the 384-well assay plates. The plates were placed on an orbital shaker for 2 min and then luminescence was quantified using the Envision (Perkin Elmer) plate reader. Readings were normalized to DMSO only treated cells, and normalized activities were utilized for EC50 calculations using the dose-response log (inhibitor) vs. response-variable slope (four parameters) nonlinear regression feature available in GraphPad Prism 5.0 (or Dotmatics).
# SW480 colon cancer cells = experiment: Cell viability assay (CellTiter-Blue) in SW480 colon cancer cells; details: Homo sapiens; for EC50: 96 h, SW480 cell viability, four days incubation; for inhibition at 10 µM: SW480, read-out: percent inhibition at 10 μM
# Procedure: Representative compounds were screened using the following assay procedure to assess the effect on cell viability as described below.
# Approximately 2×10^3 SW480 colon cancer cells were seeded into each well and allowed to incubate in the presence or absence of compound for four days at 37° C./5% CO2. Eight replicates of DMSO-treated cells served as controls and cells treated with compound were performed in duplicate.
# After incubation, 20 μL of CellTiter-Blue (Promega) was added to each well allowed to incubate for approximately 3 hours. This reagent was a buffered solution which contains resazurin, metabolically active cells were able to reduce rezarurin (blue) into resorufin (pink) which was highly fluorescent. This measured fluorescence was used as a readout for cell viability.
# [2] = test system: Primary human fibroblasts derived from IPF patients (LL29 cells); experiment: Inhibition of the fibrotic process: αSMA staining in TGF-β1-treated LL29 fibroblasts; details: Fibroblast; for EC50: 96 h, LL29 cells, TGF-β1 20 ng/mL, 4 days, % αSMA-positive cells
# From the text: Representative compounds were screened using primary human fibroblasts (derived from IFF patients) treated with TGF-β1 to determine their ability to inhibit the fibrotic process.
# K. L., et.al., “RhoA signaling modulates cyclin D1 expression in human lung fibroblasts; implications for idiopathic pulmonary fibrosis”, Respiratory Research (2006), 7(1), 88] were obtained from American Type Culture Collection (ATCC) and expanded in F12 medium supplemented with 15% Fetal Bovine Serum and Penicillin/Streptomycin.
# LL29 cells are plated at 1,500 cells/well in 80 μL/well F12 medium supplemented with 1% Fetal Bovine Serum. […] Wells treated with TGF-β1 and containing DMSO were used as controls. […] Following incubation for 4 days, SYTOX green nucleic acid stain (Life Technologies [Thermo Fisher Scientific]) was added to the wells at a final concentration of 1 μM and incubated at room temperature for 30 min.
# [3] = test system: primary human mesenchymal stem cells (hMSCs); experiment: Induction of chondrogenesis in hMSCs (nodule imaging, Rhodamine B / Nile Red); details: 6 days
# From the text: Representative compounds were screened using primary human mesenchymal stem cells (hMSCs) to determine their ability to induce chondrogenesis (process by which cartilage is developed).
# Primary human mesenchymal stem cells (hMSCs) were purchased from Lonza (Walkersville, Md.) and expanded in Mesenchymal Stem Cell Growth Media (Lonza). Cells between passage 3 and 6 were used for the experiments.
# Area of nodules in each well was normalized to the average of 3 DMSO treated wells on the same plate using Excel (Microsoft Inc.). The normalized averages (fold change over DMSO) of 2 or 3 replicate wells for each compound concentration were calculated. Due to solubility limitations of some of the compounds, curve fitting was incomplete leading to inaccurate EC50 determinations.
# Using TGF-β3 as a positive control, the concentration of representative compounds required to induce 50% levels of chondrogenesis is reported. In addition, the maximum activity of each compound and the respective dose that each compound reached maximum chondrogenesis activity is reported.
# IL-6 (THP-1 cells) = experiment: IL-6 inhibition in THP-1 monocytes (HTRF); details: Homo sapiens; for EC50: IL-6 inhibition, THP-1 cells, HTRF, 10-point dose-response starting from 10 μM; for inhibition at 10 µM: THP-1, read-out: percentage in parentheses printed under EC50 >10
# Procedure: Compound Screening: THP-1 cells were cultured in basal media with 1% FBS for 24 hours before the start of the assay. […] THP-1 cells were plated at 5000 cells/well in the 384-well plates and incubated at 37° C. for 2 h. 500 ng/mL of […] was added after 2 hours and cells were incubated for another 22 hours at 37° C. Plates were spun in a centrifuge for 1 minute at 10,000 rpm and a mixture of anti-IL6 XL665, and anti-IL6 Cryptate diluted in reconstitution buffer (Cisbio Inc.) was added to each well. Following incubation for 3 hrs at room temperature, Homogeneous Time-Resolved Fluorescence (HTRF) was measured using the Envision (Perkin Elmer) at 665 nm and […]. The ratio of fluorescence at 665 nm to 620 nm was used as a readout for IL6 quantification. All samples were processed in duplicate. Readings were normalized to DMSO treated cells and normalized activities were utilized for EC50 calculations using the dose-response log (inhibitor) vs. response-variable slope (four parameters) nonlinear regression feature available in GraphPad Prism 5.0 (or Dotmatics).
Structure (SMILES),EC50 [1] [µM],EC50 (SW480 colon cancer cells) [µM],EC50 [2] [µM],"EC50 ([3]; concentration required to induce 50% levels of chondrogenesis vs TGF-β3, read-out: Conc (nM) of 50% TGF-β3 activity) [nM]","Emax ([3]; relative to TGF-β3 (10 ng/mL) positive control, read-out: Max. Activity as % TGF-β3 activity) [%]",EC50 (IL-6 (THP-1 cells)) [µM],inhibition at 10 µM (IL-6 (THP-1 cells)) [%],inhibition at 10 µM (SW480 colon cancer cells) [%],"inhibition at 10 µM ([1]; SW480, read-out: percent inhibition at 10 μM) [%]",inhibition at 10 µM ([2]; read-out: percent inhibition at 10 μM) [%]
"COc1cncc(-c2ccc3[nH]nc(-c4cc5c(-c6ccoc6)cncc5[nH]4)c3c2)c1 [Compound 692, 3-(4-(Furan-3-yl)-1H-pyrrolo[2,3-c]pyridin-2-yl)-5-(5-methoxypyridin-3-yl)-1H-indazole]",2.2,1.1,0.728,10,170,8.27,,,,
"Fc1ccccc1-c1cncc2[nH]c(-c3n[nH]c4ccc(-c5cncc(CN6CCCCC6)c5)cc34)cc12 [Compound 71, 3-(4-(2-Fluorophenyl)-1H-pyrrolo[2,3-c]pyridin-2-yl)-5-(5-(piperidin-1-ylmethyl)pyridin-3-yl)-1H-indazole]",4.25,3.42,2.31,,,3.3,,,,
"Fc1cccc(-c2cncc3[nH]c(-c4n[nH]c5ccc(-c6cccnc6)cc45)cc23)c1 [Compound 4, 3-(4-(3-Fluorophenyl)-1H-pyrrolo[2,3-c]pyridin-2-yl)-5-(pyridin-3-yl)-1H-indazole]",0.395,1.38,1.63,,,0.783,,,,
"O=C(Nc1cncc(-c2ccc3[nH]nc(-c4cc5c(-c6ccccc6F)cncc5[nH]4)c3c2)c1)C1CCCC1 [Compound 78, N-(5-(3-(4-(2-Fluorophenyl)-1H-pyrrolo[2,3-c]pyridin-2-yl)-1H-indazol-5-yl)pyridin-3-yl)cyclopentanecarboxamide]",1.25,1.23,1.41,,,6.42,,,,
"CS(=O)(=O)NCc1cc(F)cc(-c2cncc3[nH]c(-c4n[nH]c5ccc(-c6cncc(OCc7ccccc7)c6)cc45)cc23)c1 [Compound 774, N-(3-(2-(5-(5-(Benzyloxy)pyridin-3-yl)-1H-indazol-3-yl)-1H-pyrrolo[2,3-c]pyridin-4-yl)-5-fluorobenzyl)methanesulfonamide]",2.15,2.01,1.49,,,> 10,45,,,
"CCCC(=O)Nc1cncc(-c2ccc3[nH]nc(-c4cc5c(-c6ccc(F)cc6)cncc5[nH]4)c3c2)c1 [Compound 45, N-(5-(3-(4-(4-Fluorophenyl)-1H-pyrrolo[2,3-c]pyridin-2-yl)-1H-indazol-5-yl)pyridin-3-yl)butyramide]",1.51,1.01,0.29,,,0.349,,,,
CCCCC(=O)Nc1cncc(-c2ccc3[nH]nc(-c4cc5c(-c6ccccc6F)cncc5[nH]4)c3c2)c1 [Compound 75],1.76,1.18,1.16,,,> 10,39.1,,,
"CS(=O)(=O)NCc1cc(F)cc(-c2cncc3[nH]c(-c4n[nH]c5ccc(-c6cncc(NC(=O)Cc7ccccc7)c6)cc45)cc23)c1 [Compound 486, N-(5-(3-(4-(3-Fluoro-5-(methylsulfonamidomethyl)phenyl)-1H-pyrrolo[2,3-c]pyridin-2-yl)-1H-indazol-5-yl)pyridin-3-yl)-2-phenylacetamide]",3.48,> 10,4.77,,,0.574,,45.4,,
"CC(C)(C)CC(=O)Nc1cncc(-c2ccc3[nH]nc(-c4cc5c(-c6ccccc6F)cncc5[nH]4)c3c2)c1 [Compound 72, N-(5-(3-(4-(2-Fluorophenyl)-1H-pyrrolo[2,3-c]pyridin-2-yl)-1H-indazol-5-yl)pyridin-3-yl)-3,3-dimethylbutanamide]",0.73,0.693,0.593,,,1.1,,,,
"Fc1ccccc1-c1cncc2[nH]c(-c3n[nH]c4ccc(-c5cncc(CN6CCC(F)(F)C6)c5)cc34)cc12 [Compound 82, 5-(5-((3,3-Difluoropyrrolidin-1-yl)methyl)pyridin-3-yl)-3-(4-(2-fluorophenyl)-1H-pyrrolo[2,3-c]pyridin-2-yl)-1H-indazole]",0.63,0.923,0.648,,,0.796,,,,
"c1cc(-c2cncc3[nH]c(-c4n[nH]c5ccc(-c6cncc(CN7CCCCC7)c6)cc45)cc23)co1 [Compound 323, 3-(4-(Furan-3-yl)-1H-pyrrolo[2,3-c]pyridin-2-yl)-5-(5-(piperidin-1-ylmethyl)pyridin-3-yl)-1H-indazole]",0.418,0.57,1.39,,,0.219,,,,
"Fc1ccccc1-c1cncc2[nH]c(-c3n[nH]c4ccc(-c5cn[nH]c5)cc34)cc12 [Compound 539, 3-(4-(2-Fluorophenyl)-1H-pyrrolo[2,3-c]pyridin-2-yl)-5-(1H-pyrazol-4-yl)-1H-indazole]",0.049,0.134,0.164,,,0.037,,,,
"O=C(Nc1cncc(-c2ccc3[nH]nc(-c4cc5c(-c6ccncc6)cncc5[nH]4)c3c2)c1)C1CCCCC1 [Compound 135, N-(5-(3-(4-(Pyridin-4-yl)-1H-pyrrolo[2,3-c]pyridin-2-yl)-1H-indazol-5-yl)pyridin-3-yl)cyclohexanecarboxamide]",> 10,> 10,9.98,,,1.63,,6.1,20.8,
"Fc1cccc(-c2cncc3[nH]c(-c4n[nH]c5ccc(-c6ccncc6)cc45)cc23)c1 [Compound 18, 3-(4-(3-Fluorophenyl)-1H-pyrrolo[2,3-c]pyridin-2-yl)-5-(pyridin-4-yl)-1H-indazole]",2.11,0.988,0.973,,,> 10,54.3,,,
"CN(C)Cc1cncc(-c2ccc3[nH]nc(-c4cc5c(-c6ccc(F)cc6)cncc5[nH]4)c3c2)c1 [Compound 41, 1-(5-(3-(4-(4-Fluorophenyl)-1H-pyrrolo[2,3-c]pyridin-2-yl)-1H-indazol-5-yl)pyridin-3-yl)-N,N-dimethylmethanamine]",3.08,1.17,1.19,,,7.05,,,,
"Nc1cncc(-c2ccc3[nH]nc(-c4cc5c(N6CCCCC6)cncc5[nH]4)c3c2)c1 [Compound 171, 5-(3-(4-(Piperidin-1-yl)-1H-pyrrolo[2,3-c]pyridin-2-yl)-1H-indazol-5-yl) pyridin-3-amine]",3.65,> 10,> 10,,,1.54,,43,,9.8

# Reference: US20180228780A1, “3-(1H-PYRROLO[2,3-C]PYRIDIN-2-YL)-1H-INDAZOLES AND THERAPEUTIC USES THEREOF” (Samumed, LLC, priority 2015, published 2018)
